Here are results for 19 compounds from patent publication US7625948B2, “Ester compound and medicinal use thereof” (Japan Tobacco Inc., priority 2002, dated 2009).

Series [1] has as its system Syrian hamsters. Briefly: Test Example 3: olive oil-loading test (inhibition of fat absorption, plasma TG). It is filed as in vivo. The note with it: Mesocricetus auratus, po; 100 mg/kg p.o.; plasma TG 4 hours after olive oil; read-out: Test Example 3 Inhibition of fat absorption after olive oil-loading in Hamster Inhibition rate (%).
A further series relates to HepG2 cells. The series is described as follows: Test Example 2: inhibition of apolipoprotein B secretion from HepG2 cells, ELISA (also used for metabolites in Test Example 8). It is filed as cell-based. Conditions: Homo sapiens, 24 hours, apo B in supernatant by ELISA, read-out: Test Example 2 Inhibition of apo B secretion IC50. In outline:
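HepG2 cells cultured 24 h, then exposed 24 h to compounds or metabolites in medium with 0.5% DMSO. Secreted apo B in supernatant quantified by sandwich ELISA (HRP, ABTS, 405 nm) against purified human apo B standard; % inhibition vs DMSO group, IC50 derived.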

Series [2] concerns Syrian hamsters. Briefly: Test Example 4: liver TG release inhibition test (Triton WR 1339). The format is in vivo. The note with it: Triton WR 1339, plasma TG release velocity over 2 h, fasted Syrian hamsters. Here is the method: Liver TG Release Inhibition Test
Syrian hamsters (9 to 11 weeks of age) which were fasted for one day were used in the test. Blood was collected previously from orbital venous plexus, and a sample was forced to be administered orally to the hamsters at a dose of 30, 100 or 300 mg/2 mL/kg, and the same amount of vehicle was administered to the control group. Triton WR 1339 (2 mL/kg) was intravenously administered to the hamsters 30 minutes after the above administration. Two hours later, blood was collected from orbital venous plexus, and plasma was separated from the blood. The amount of TG in the plasma was determined by automatic analyzer (Hitachi Co.). The data was expressed in terms of TG release velocity (mg/dL/min)=(value at 2nd hour minus value before administration)/120. Inhibition rate (%) was calculated from the data obtained on the basis of the following equation.
Inhibition rate (%)=100×(1 minus TG release velocity of sample/TG release velocity of control group).

The nature of series [3]: Test Example 6: determination of the concentration in plasma (unchanged form and metabolite, orbital venous plexus and portal vein, LC/MS). It is filed as in vivo. The note with it: hamster, oral, Syrian hamsters; for concentration at 1 h: 1 h after 30 mg/kg p.o.; for concentration at 2 h: 2 h after 30 mg/kg p.o.; for concentration at 4 h: 4 h after 30 mg/kg p.o. How it is done: Determination of the Concentration in Plasma Syrian hamsters (9-15 weeks of age) under non-fasted conditions were used in the test. A sample was suspended in 0.5% methyl cellulose (vehicle), and the suspension was forced to be administered orally to the hamsters at a dose of 30 or 100 mg/2 mL/kg. After a fixed period of time, blood was partly collected from orbital venous plexus, and the hamsters were subjected to laparotomy under ether anesthesia, and then blood was collected from portal vein. The blood was immediately cooled with ice to separate plasma. A portion of the plasma was extracted with an organic solvent and the supernatant was recovered. Concentration of the sample (unchanged form) and that of the metabolite in the supernatant were determined quantitatively by high performance liquid chromatography/mass spectrometry (LC/MS) comparing with chromatogram of synthetic standard.

Series [4] in a line: Test Example 7: metabolic stability test in hamster liver S9. It is filed as in vitro ADME. Conditions: hamster liver S9, 2 mg protein/mL, 37° C. How it is done:
(§1) Metabolic Stability Test in Liver S9 and Small Intestine S9
(§2) Human and hamster liver S9 (final concentration: 2 mg protein/mL), and human and hamster small intestine S9 (final concentration: 2 mg protein/mL) were each suspended in 100 mM potassium phosphate buffer (pH 7.4, containing β-nicotinamide adenine dinucleotide phosphate: 1.3 mM, D-glucose-6-phosphate: 3.3 mM, magnesium chloride: 3.3 mM, glucose-6-phosphate dehydrogenase: 0.4 U/mL). The suspensions were mixed with a solution of a sample (Example 2-5) in DMSO. The solutions were incubated at 37° C. for 0, 10 and 60 minutes, and an organic solvent was added thereto. The solutions were centrifuged, and the concentration of the sample (unchanged form) in the supernatant was determined by high performance liquid chromatography/mass spectrometry (LC/MS). Based on the data obtained, remaining rate (%) was calculated according to the following equation.
(§3) Remaining rate(%)=amount of sample 10 or 60 minutes after incubation/amount of sample at zero time after incubation×100

The nature of series [5]: Test Example 7: metabolic stability test in human small intestine S9. The format is in vitro ADME. Conditions: human small intestine S9, 2 mg protein/mL, 37° C. How it is done:
as §1, §2, §3

[6] abbreviates: plasma from peripheral blood (orbital venous plexus), read-out: Concentration in plasma, unaltered form, peripheral blood.
Where [7] appears, read: plasma from portal vein blood, read-out: Concentration in plasma, unaltered form, blood of portal vein.

Molecules are shown by their SMILES. Like-named read-outs stand apart in the source and are kept apart here.

Regarding `CCNC(=O)C(COC(=O)Cc1ccc(NC(=O)c2ccccc2-c2ccc(C(F)(F)F)cc2)cc1)(C(=O)NCC)c1ccccc1` [Example 1, 4-[(4′-Trifluoromethylbiphenyl-2-carbonyl)amino]phenyl-acetic acid 2,2-bisethylcarbamoyl-2-phenylethyl ester], in the series with Syrian hamsters [1], the inhibition in vivo at 100 mg/kg worked out at 57%. Moreover, in the series with HepG2 cells, the IC50 is 5.8 nM. The “Inhibition of liver TG release in Hamster, Inhibition rate(%)” value (shortened to “Inhibition … Inhibition rate(%)”) in the series on Syrian hamsters [2] (300 mg/kg p.o.) is recorded as 19(300) %.

For the compound `CCOC(=O)C(COC(=O)Cc1ccc(OC(=O)c2ccccc2-c2ccc(C(F)(F)F)cc2)cc1)(C(=O)OCC)c1ccccc1` [Example 1-2, 2-Phenyl-2-{2-[4-(4′-trifluoromethylbiphenyl-2-carbonyloxy)phenyl]acetoxymethyl}malonic acid diethyl ester], the IC50 in the series with HepG2 cells is 850 nM. Moreover, in series [3] (setting [6]), the concentration at 1 h is less than 200 nM, the concentration at 2 h is less than 200 nM and the concentration at 4 h was less than 200 nM. In addition, in series [3] (setting [7]), the concentration at 1 h is less than 200 nM, the concentration at 2 h was less than 200 nM and the concentration at 4 h is less than 200 nM.

As for `CCNC(=O)C(COC(=O)Cc1ccc(NC(=O)c2ccccc2-c2ccc(C(F)(F)F)cc2)c(CC)c1)(C(=O)NCC)c1ccccc1` [Example 1-5, {3-Ethyl-4-[(4′-trifluoromethylbiphenyl-2-carbonyl)amino]phenyl}acetic acid 2,2-bisethylcarbamoyl-2-phenylethyl ester], the IC50 in the series with HepG2 cells amounted to 0.65 nM.

Take `O=C(Cc1ccc(NC(=O)c2ccccc2-c2ccc(C(F)(F)F)cc2)cc1)OCC1(C(=O)NCC(F)(F)F)c2ccccc2-c2ccccc21` [Example 1-6]: in the series on HepG2 cells, the IC50 was 5.5 nM. For the same compound, the “Inhibition … Inhibition rate(%)” value in the series on Syrian hamsters [2] (100 mg/kg p.o.) was 0(100) %.

For `O=C(Cc1ccc(NC(=O)c2ccccc2-c2ccc(C(F)(F)F)cc2)cc1)OCC(C(=O)NCC(F)(F)F)(C(=O)NCC(F)(F)F)c1ccccc1` [Example 1-12], the IC50 with HepG2 cells is 63 nM. Further, in series [3] (setting [6]), the concentration at 1 h was less than 200 nM, the concentration at 2 h was less than 200 nM and the concentration at 4 h is less than 200 nM. Moreover, in series [3] (setting [7]), the concentration at 1 h is less than 200 nM, the concentration at 2 h is less than 200 nM and the concentration at 4 h is less than 200 nM.

Turning to `COC(=O)C(COC(=O)Cc1ccc(NC(=O)c2ccccc2-c2ccc(C(F)(F)F)cc2)cc1)(C(=O)OC)c1ccccc1` [Example 1-13], in the series with HepG2 cells, the IC50 was found to be 170 nM. Moreover, in series [3] (setting [6]), the concentration at 1 h is less than 200 nM, the concentration at 2 h is less than 200 nM and the concentration at 4 h was less than 200 nM. For the same compound, in series [3] (setting [7]), the concentration at 1 h is less than 200 nM, the concentration at 2 h was less than 200 nM and the concentration at 4 h is less than 200 nM.

As to `CCCNC(=O)C(COC(=O)Cc1ccc(NC(=O)c2ccccc2-c2ccc(C(F)(F)F)cc2)cc1)(C(=O)NCCC)c1ccccc1` [Example 1-35], in the series with Syrian hamsters [1], the inhibition in vivo at 100 mg/kg was 59%. The concentration for half-maximal inhibition (IC50) in the series with HepG2 cells amounted to 6.9 nM. In addition, the “Inhibition … Inhibition rate(%)” value with Syrian hamsters [2] (300 mg/kg p.o.) was 9(300) %.

On to `CCNC(=O)C(COC(=O)Cc1ccc(NC(=O)c2ccccc2-c2ccc(C(F)(F)F)cc2)c(C(=O)N(C)C)c1)(C(=O)NCC)c1ccccc1` [Example 2, {3-Dimethylcarbamoyl-4-[(4′-trifluoromethylbiphenyl-2-carbonyl)amino]phenyl}acetic acid 2,2-bisethylcarbamoyl-2-phenylethyl ester], for which, in the series with HepG2 cells, the IC50 amounted to 1.5 nM.

For the compound `CCCNC(=O)C(COC(=O)Cc1ccc(NC(=O)c2ccccc2-c2ccc(C(F)(F)F)cc2)c(C(=O)N(C)C)c1)(C(=O)NCCC)c1ccccc1` [Example 2-2], the IC50 in the series with HepG2 cells turned out to be 1.3 nM.

Regarding `CCNC(=O)C(COC(=O)Cc1ccc(NC(=O)c2ccccc2-c2ccc(C(F)(F)F)cc2)c(C(=O)NC)c1)(C(=O)NCC)c1ccccc1` [Example 2-3], the IC50 in the series on HepG2 cells was 2 nM.

For the compound `CCNC(=O)C(CCOC(=O)Cc1ccc(NC(=O)c2ccccc2-c2ccc(C(F)(F)F)cc2)c(C(=O)N(C)C)c1)(C(=O)NCC)c1ccccc1` [Example 2-4], in the series with HepG2 cells, the IC50 is 0.29 nM.

In the case of `CCOC(=O)C(COC(=O)Cc1ccc(NC(=O)c2ccccc2-c2ccc(C(F)(F)F)cc2)c(C(=O)N(C)C)c1)(C(=O)OCC)c1ccccc1` [Example 2-5], the IC50 in the series with HepG2 cells came to 0.55 nM. For the same compound, the “Remaining rate (%) after 10 min.” value in series [4] (10 min) was determined as 2.4%; in series [5] (10 min), 97.6%. The results for the “Remaining rate (%) after 60 min.” value in series [4] (60 min) and in series [5] (60 min) were 0% and 91.5%, respectively. Further, the concentration at 1 h is less than 20 nM in series [3] (setting [6]) and 10 nM in series [3] (setting [7]). Besides, the values for the concentration at 2 h in series [3] (setting [6]) and in series [3] (setting [7]) were less than 20 nM and 30 nM, respectively. The concentration at 4 h in series [3] (setting [6]) is less than 20 nM; in series [3] (setting [7]), 10 nM. In addition, the “Inhibition … Inhibition rate(%)” value with Syrian hamsters [2] (100 mg/kg p.o.) is 0(100) %.

For `CCNC(=O)C(CCCOC(=O)Cc1ccc(NC(=O)c2ccccc2-c2ccc(C(F)(F)F)cc2)c(C(=O)N(C)C)c1)(C(=O)NCC)c1ccccc1` [Example 2-7], the IC50 in the series with HepG2 cells amounted to 0.56 nM.

For `CCOC(=O)C(COC(=O)Cc1ccc(NC(=O)c2ccccc2-c2ccc(C(F)(F)F)cc2)c(C(=O)N2CCCC2)c1)(C(=O)OCC)c1ccccc1` [Example 2-22], in the series on HepG2 cells, the IC50 amounted to 0.44 nM. For the same compound, the “Inhibition … Inhibition rate(%)” value in the series with Syrian hamsters [2] (30 mg/kg p.o.) is on record as 0(30) %.

Consider `COC(=O)C(COC(=O)Cc1ccc(NC(=O)c2ccccc2-c2ccc(C(F)(F)F)cc2)c(C(=O)N(C)C)c1)(C(=O)OC)c1ccccc1` [Example 2-39], for which the IC50 in the series on HepG2 cells stood at 0.76 nM. The “Inhibition … Inhibition rate(%)” value in the series with Syrian hamsters [2] (100 mg/kg p.o.) was 6(100) %.

In the case of `CCNC(=O)C(COC(=O)Cc1ccc(NC(=O)c2ccccc2-c2ccc(C(F)(F)F)cc2)c(OC)c1)(C(=O)NCC)c1ccccc1` [Example 3-3], the IC50 with HepG2 cells is 1 nM. Besides, the “Inhibition … Inhibition rate(%)” value with Syrian hamsters [2] (100 mg/kg p.o.) was 18(100) %.

Turning to `CCNC(=O)C(CCOC(=O)Cc1ccc(NC(=O)c2ccccc2-c2ccc(C(F)(F)F)cc2)c(OC)c1)(C(=O)NCC)c1ccccc1` [Example 3-6], the IC50 with HepG2 cells was determined as 0.63 nM.

On to `CCNC(=O)C(CCOC(=O)Cc1ccc(NC(=O)c2ccccc2-c2ccc(C(F)(F)F)cc2)c(OCC)c1)(C(=O)NCC)c1ccccc1` [Example 3-8], for which the IC50 in the series with HepG2 cells stood at 0.38 nM.

Regarding `CCNC(=O)C(COC(=O)Cc1ccc(NC(=O)c2ccccc2-c2ccc(C(F)(F)F)cc2)c(OC(C)C)c1)(C(=O)NCC)c1ccccc1` [Example 3-10], the IC50 with HepG2 cells is 0.31 nM.
